Assay results as given in publication PMC10600239, “Selective MCL-1 inhibitor ABBV-467 is efficacious in tumor models but is associated with cardiac troponin increases in patients” (Communications Medicine, 2023).
“And” between values parts separate entries of the source, which are not always exact repeats. Equal values may be shown once.

Tested on: AMO-1 xenografts
Experiment: AMO-1 xenograft efficacy (tumor volume, body weight); on Mortality Observation Day 34: key: EUTV: Euthanized: tumor volume
Format: in vivo, mouse
Design: key to Anti-tumor Activity vs. AMO-1 (DSMZ), Median / Anti-tumor Activity vs. AMO-1 (DSMZ), individual animal / Anti-tumor Activity vs. AMO-1 (DSMZ), Mean: tumor volume in mm^3 (length × width^2/2)
Experimental: All animal studies were conducted in accordance with the guidelines approved by the Institutional Animal Care and Use Committees of AbbVie. The research protocol was approved by In Vivo Pharmacology at AbbVie prior to study initiation but was not publicly registered or disclosed. Female C.B-17 SCID-beige mice (AMO-1, OPM-2, NCI-H929, and OCI-AML2 xenografts) and female NSG mice (MV4-11-Red.Fluc systemic) were purchased from Charles River Laboratories (Wilmington, MA). Animals were housed in a light cycle-controlled room with HEPA filtration at 22 °C. Animals had nesting and climbing cage topper as the primary environmental enrichment. Animals were inoculated subcutaneously in the right flank with 5 × 10^6 (AMO-1, OPM-2, NCI-H929, and OCI-AML2) or intravenous (IV) with 5 × 10^6 (MV4-11-Red.Fluc). The inoculation volume (0.2 mL) comprised a 50:50 mixture of cells in growth media and Matrigel (BD Biosciences) for subcutaneous injections and 100% phosphate-buffered saline for IV administration. All cell lines used in this publication were authenticated using IDEXX for STR profiling as well as their IMPACT and human IMPACT panels for pathogen screening. Electronic calipers were used to measure the length and width of each tumor 2 to 3 times per week. Tumor volume was estimated by applying the following equation: volume = length × width^2/2. All groups remained blinded during measurements and dosing; only veterinary staff were aware of group identity. When tumors reached approximately 200 mm^3, mice were randomized by match and distributed into treatment and control groups. All xenograft trials were conducted using 5 to 10 mice per group, and all mice were ear tagged and monitored individually throughout the studies. […] Tumor burden in the systemic MV4-11-Red.Fluc experiment was measured using an IVIS® spectrum from PerkinElmer by taking the total photon flux of the entire dorsal side of an individual mouse. […] A background control mouse that was tumor naive but received D-Luciferin was placed in the upper left corner of each image. The total flux from this animal was subtracted from the total flux of each animal present in the image.
For in vivo studies, maximal tumor growth inhibition (TGI) was calculated as the greatest treatment response using the following equation: Maximal TGI = (1 − mean tumor volume of the treated group/mean tumor volume of the vehicle control group) × 100. The tumor growth delay (TGD) percentage was determined as the percentage increase of the median time period for the treatment group to reach an arbitrary tumor volume of 1000 mm^3 relative to the vehicle control group. […] A power analysis was conducted using historical data to determine the number of animals required to yield significance of 0.05 at a 30% difference. […] Data from experiments in vivo were analyzed using the student’s t-test for TGI values and the Mann–Whitney U test for TGD using Excel and GraphPad Prism. Fisher’s exact test was used to probe significance of differences in response frequency.

[1] = 3.13 mg/kg QDx1 IV, Day 28, n=8
[2] = 3.13 mg/kg QDx1 IV, SCID-beige mice, Day 21
[3] = 3.13 mg/kg QDx1 IV, SCID-beige mice, Day 23
[4] = 3.13 mg/kg QDx1 IV, SCID-beige mice, Day 23, mean(T)/mean(C)
[5] = 3.13 mg/kg QDx1 IV, SCID-beige mice, Day 23, median(T)/median(C)

## Cc1c(Cl)c2c(Cl)c(C)c1-c1c(-c3ccc(F)cc3)sc3ncnc(c13)O[C@@H](C(=O)O)Cc1cc(ccc1OCc1ccnc(-c3ccc(OC[C@H]4COCCO4)cc3)n1)OC[C@@H](CN1CCN(C)CC1)O2 [Compound A-1747745.0]
3.13 mg/kg QDx1 IV, Day 26, mean(T)/mean(C)
  % T/C (mean) tumor volume Day 26: 46.99%
3.13 mg/kg QDx1 IV, Day 26, median(T)/median(C)
  % T/C (median) tumor volume Day 26: 47.41%
[1]
  Xenograft AMO-1 (DSMZ) tumor volume Day 28, Mean: 1102.63 mm³
  Xenograft AMO-1 (DSMZ) tumor volume Day 28, Median: 1024.93 mm³
3.13 mg/kg QDx1 IV, Day 28, mean(T)/mean(C)
  % T/C (mean) tumor volume Day 28: 53.81%
3.13 mg/kg QDx1 IV, Day 28, median(T)/median(C)
  % T/C (median) tumor volume Day 28: 53.13%
3.13 mg/kg QDx1 IV, SCID-beige female mice, Day 26
  Xenograft AMO-1 (DSMZ) tumor volume Day 26, individual animals: 859 mm³ and 654 mm³ and 702 mm³ and 664 mm³ and 464 mm³ and 884 mm³ and 882 mm³ and 812 mm³
3.13 mg/kg QDx1 IV, SCID-beige female mice, Day 28
  Xenograft AMO-1 (DSMZ) tumor volume Day 28, individual animals: 1383 mm³ and 753 mm³ and 968 mm³ and 881 mm³ and 872 mm³ and 1157 mm³ and 1725 mm³ and 1082 mm³
[2]
  Xenograft AMO-1 (DSMZ) Day 21, Mean: 316.72 mm³
  Xenograft AMO-1 (DSMZ) Day 21, Median: 336.29 mm³
3.13 mg/kg QDx1 IV, SCID-beige mice, Day 21, individual tumor volumes
  Xenograft AMO-1 (DSMZ) (mm³) Day 21, individual animals: 248 mm³ and 370 mm³ and 418 mm³ and 238 mm³ and 111 mm³ and 349 mm³ and 477 mm³ and 324 mm³
3.13 mg/kg QDx1 IV, SCID-beige mice, Day 21, mean(T)/mean(C)
  % T/C (mean), Tumor Volume Day 21: 49.55%
3.13 mg/kg QDx1 IV, SCID-beige mice, Day 21, median(T)/median(C)
  % T/C (median), Tumor Volume Day 21: 63.86%
[3]
  Xenograft AMO-1 (DSMZ) Day 23 Mean: 463.98 mm³
  Xenograft AMO-1 (DSMZ) Day 23 Median: 467.27 mm³
3.13 mg/kg QDx1 IV, SCID-beige mice, Day 23, individual tumor volumes
  Xenograft AMO-1 (DSMZ) (mm³) Day 23, individual animals: 595 mm³ and 419 mm³ and 553 mm³ and 359 mm³ and 205 mm³ and 462 mm³ and 647 mm³ and 473 mm³
[4]
  % T/C (mean), body weight Day 23: 104.12%
  % T/C (mean), tumor volume Day 23: 43.45%
[5]
  % T/C (median), body weight Day 23: 104.12%
  % T/C (median), tumor volume Day 23: 48.01%
3.13 mg/kg QDx1 IV, Day 30, SCID-beige female mice, tumor volume per animal
  Xenograft AMO-1 (DSMZ) (mm³) Day 30 (individual animals): 1812 mm³ and 984 mm³ and 1324 mm³ and 1150 mm³ and 1149 mm³ and 1537 mm³ and 1916 mm³ and 1649 mm³
3.13 mg/kg QDx1 IV, Day 30, group mean
  Xenograft AMO-1 (DSMZ) (mm³) Day 30 Mean: 1440.23 mm³
3.13 mg/kg QDx1 IV, Day 30, group median
  Xenograft AMO-1 (DSMZ) (mm³) Day 30 Median: 1430.49 mm³
3.13 mg/kg QDx1 IV, Day 34, SCID-beige female mice, tumor volume per animal
  Xenograft AMO-1 (DSMZ) (mm³) Day 34 (individual animals): 2874 mm³ and 1660 mm³ and 1699 mm³ and 1719 mm³ and 1802 mm³ and 2605 mm³ and 2742 mm³ and 2768 mm³
3.13 mg/kg QDx1 IV, Day 34, group mean
  Xenograft AMO-1 (DSMZ) (mm³) Day 34 Mean: 2233.47 mm³
3.13 mg/kg QDx1 IV, Day 34, group median
  Xenograft AMO-1 (DSMZ) (mm³) Day 34 Median: 2203.67 mm³
3.13 mg/kg QDx1 IV, Day 34, per animal
  Mortality Observation Day 34: EUTV
6.25 mg/kg IV QDx1, AMO-1 xenograft, SCID-beige mice, in g (unit assumed)
  Starting Body Wt.: 21.625
6.25 mg/kg IV QDx1, clinical observation
  % Mortality: 100.00%
6.25 mg/kg IV QDx1, day 13
  Anti-tumor Activity vs. AMO-1 (DSMZ), Mean: 216.25
  Anti-tumor Activity vs. AMO-1 (DSMZ), Median: 216.39
6.25 mg/kg IV QDx1, day 14
  Group Mean, Body Weight: 21.63 g
6.25 mg/kg IV QDx1, day 16
  Anti-tumor Activity vs. AMO-1 (DSMZ), Mean: 172.06
  Anti-tumor Activity vs. AMO-1 (DSMZ), Median: 173.79
6.25 mg/kg IV QDx1, day 19
  Anti-tumor Activity vs. AMO-1 (DSMZ), Mean: 133.62
  Anti-tumor Activity vs. AMO-1 (DSMZ), Median: 134.81
6.25 mg/kg IV QDx1, day 21
  Anti-tumor Activity vs. AMO-1 (DSMZ), Mean: 175.92
  Anti-tumor Activity vs. AMO-1 (DSMZ), Median: 202.13
6.25 mg/kg IV QDx1, day 23
  Anti-tumor Activity vs. AMO-1 (DSMZ), Mean: 218.85
